One may read the pIC50 as the negative decadic logarithm of the IC50, by convention in mol/L.

The values that follow come from the Kinase Knowledgebase extract (Sharma et al. 2016).

Structures are written as SMILES. pIC50: −log10 of the molar value. Where only a bound is given, the exact number is not on record here.

For test [1], the target named is PIK3CD (Human) (UniProt O00329). In words: Cell-Based Assay. As to conditions: raji.
Test [2] has the same target. In words: Enzyme Assay.
For the next test, the target named is PIK3CB (Human) (UniProt P42338). The test is described as follows: Enzyme Assay.
The target of a further test is PIK3CG (human) (UniProt P48736). The test is described as follows: Enzyme Assay.
Sequence of PIK3CG (human) (P48736 whole entry, looked up): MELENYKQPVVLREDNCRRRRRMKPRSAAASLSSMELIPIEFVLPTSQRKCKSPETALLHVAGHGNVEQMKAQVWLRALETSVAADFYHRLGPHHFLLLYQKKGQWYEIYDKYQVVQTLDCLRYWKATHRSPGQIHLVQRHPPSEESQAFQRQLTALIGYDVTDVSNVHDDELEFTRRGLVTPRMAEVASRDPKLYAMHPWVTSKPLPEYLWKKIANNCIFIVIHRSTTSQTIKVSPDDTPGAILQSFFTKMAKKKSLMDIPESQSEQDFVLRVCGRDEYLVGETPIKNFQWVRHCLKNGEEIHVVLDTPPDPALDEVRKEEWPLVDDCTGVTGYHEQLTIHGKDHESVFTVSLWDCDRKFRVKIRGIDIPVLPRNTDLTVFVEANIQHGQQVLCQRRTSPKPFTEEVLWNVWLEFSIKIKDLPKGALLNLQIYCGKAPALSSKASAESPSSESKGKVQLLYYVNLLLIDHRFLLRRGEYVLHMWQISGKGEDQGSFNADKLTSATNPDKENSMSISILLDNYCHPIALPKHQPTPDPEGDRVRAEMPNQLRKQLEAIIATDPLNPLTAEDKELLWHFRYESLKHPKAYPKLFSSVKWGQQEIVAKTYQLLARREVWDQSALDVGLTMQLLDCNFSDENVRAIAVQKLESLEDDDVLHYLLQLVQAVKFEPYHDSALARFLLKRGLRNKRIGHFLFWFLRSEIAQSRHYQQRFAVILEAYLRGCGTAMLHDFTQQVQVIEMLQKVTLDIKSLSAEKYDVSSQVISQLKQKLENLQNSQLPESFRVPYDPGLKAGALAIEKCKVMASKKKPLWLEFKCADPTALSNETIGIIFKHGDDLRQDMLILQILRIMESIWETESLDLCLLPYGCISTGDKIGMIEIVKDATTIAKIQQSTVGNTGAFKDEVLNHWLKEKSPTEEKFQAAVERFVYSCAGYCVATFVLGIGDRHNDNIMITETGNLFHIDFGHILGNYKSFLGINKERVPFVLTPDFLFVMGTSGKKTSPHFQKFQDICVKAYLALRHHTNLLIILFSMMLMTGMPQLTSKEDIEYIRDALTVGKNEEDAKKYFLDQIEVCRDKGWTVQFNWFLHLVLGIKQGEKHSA

Sequence of PIK3CD (Human) (O00329 whole entry, looked up): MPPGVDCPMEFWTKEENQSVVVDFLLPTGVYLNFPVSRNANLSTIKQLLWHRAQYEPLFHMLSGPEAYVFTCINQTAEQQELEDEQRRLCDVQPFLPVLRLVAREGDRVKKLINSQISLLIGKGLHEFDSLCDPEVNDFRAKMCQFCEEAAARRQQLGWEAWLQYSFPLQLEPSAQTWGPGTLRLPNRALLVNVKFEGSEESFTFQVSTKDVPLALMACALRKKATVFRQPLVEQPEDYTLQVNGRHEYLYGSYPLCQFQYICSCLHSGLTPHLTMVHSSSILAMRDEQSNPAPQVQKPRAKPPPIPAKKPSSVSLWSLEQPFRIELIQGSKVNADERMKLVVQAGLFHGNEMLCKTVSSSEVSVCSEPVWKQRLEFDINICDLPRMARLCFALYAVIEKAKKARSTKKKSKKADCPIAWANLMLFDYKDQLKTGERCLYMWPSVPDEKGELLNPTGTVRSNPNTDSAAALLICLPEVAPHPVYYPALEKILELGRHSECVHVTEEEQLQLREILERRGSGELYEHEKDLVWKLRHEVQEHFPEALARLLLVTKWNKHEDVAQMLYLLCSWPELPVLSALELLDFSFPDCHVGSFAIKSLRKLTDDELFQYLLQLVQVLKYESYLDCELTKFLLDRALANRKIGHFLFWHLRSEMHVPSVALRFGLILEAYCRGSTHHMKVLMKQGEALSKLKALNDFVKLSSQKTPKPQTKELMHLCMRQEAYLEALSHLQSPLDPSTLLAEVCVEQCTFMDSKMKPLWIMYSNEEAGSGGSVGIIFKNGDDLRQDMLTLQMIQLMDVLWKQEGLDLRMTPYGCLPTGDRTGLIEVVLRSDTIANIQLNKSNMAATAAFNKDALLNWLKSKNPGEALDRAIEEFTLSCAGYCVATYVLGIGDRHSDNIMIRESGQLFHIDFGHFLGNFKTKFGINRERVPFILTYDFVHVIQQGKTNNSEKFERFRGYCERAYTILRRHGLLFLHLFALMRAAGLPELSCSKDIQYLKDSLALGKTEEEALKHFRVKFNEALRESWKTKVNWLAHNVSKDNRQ
Sequence of PIK3CB (Human) (P42338 whole entry, looked up): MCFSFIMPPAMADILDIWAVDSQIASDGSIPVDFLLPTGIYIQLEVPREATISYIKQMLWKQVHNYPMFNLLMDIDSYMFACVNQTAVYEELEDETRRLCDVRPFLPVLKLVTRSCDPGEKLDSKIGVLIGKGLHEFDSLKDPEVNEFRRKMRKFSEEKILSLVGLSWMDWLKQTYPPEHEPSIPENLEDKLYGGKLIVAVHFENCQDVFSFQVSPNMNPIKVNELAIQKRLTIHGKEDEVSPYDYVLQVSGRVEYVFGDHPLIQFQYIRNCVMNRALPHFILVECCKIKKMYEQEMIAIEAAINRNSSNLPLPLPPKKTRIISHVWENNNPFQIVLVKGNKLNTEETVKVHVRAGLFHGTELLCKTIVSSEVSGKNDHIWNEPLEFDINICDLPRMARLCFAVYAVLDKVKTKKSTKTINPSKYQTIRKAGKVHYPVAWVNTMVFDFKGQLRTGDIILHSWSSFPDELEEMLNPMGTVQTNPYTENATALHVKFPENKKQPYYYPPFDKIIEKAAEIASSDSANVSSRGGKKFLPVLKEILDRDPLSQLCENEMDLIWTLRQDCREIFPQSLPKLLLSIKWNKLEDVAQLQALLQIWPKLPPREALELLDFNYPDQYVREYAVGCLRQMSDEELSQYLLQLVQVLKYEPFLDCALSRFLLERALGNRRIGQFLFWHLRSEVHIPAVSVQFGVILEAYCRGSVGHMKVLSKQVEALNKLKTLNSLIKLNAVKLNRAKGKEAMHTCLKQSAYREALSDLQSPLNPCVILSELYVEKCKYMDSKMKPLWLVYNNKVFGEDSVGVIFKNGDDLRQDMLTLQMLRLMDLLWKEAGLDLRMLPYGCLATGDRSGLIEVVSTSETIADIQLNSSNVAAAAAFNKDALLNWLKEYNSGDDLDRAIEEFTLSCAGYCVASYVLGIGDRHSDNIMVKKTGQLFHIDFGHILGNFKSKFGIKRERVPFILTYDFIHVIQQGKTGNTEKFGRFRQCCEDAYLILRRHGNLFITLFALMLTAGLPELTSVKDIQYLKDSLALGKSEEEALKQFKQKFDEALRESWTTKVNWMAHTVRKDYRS

With `C[C@H](NC(=O)c1nccnc1N)c1cc2cccc(C#Cc3cnn(C)c3)c2c(=O)n1-c1ccccc1`, the pIC50 is 7.00 to 9.00 on PIK3CD (Human) [1], 5.30 to 6.00 against PIK3CD (Human) [2], 5.30 to 6.00 against PIK3CB (Human) and 6.30 to 7.00 against PIK3CG (human).
In the case of `Cc1nn(C)cc1C#Cc1cccc2cc([C@H](C)NC(=O)c3c(N)nn4cccnc34)n(-c3ccccc3)c(=O)c12`, the negative-log IC50 (pIC50) against PIK3CD (Human) [1] was 6.00 to 6.30; against PIK3CD (Human) [2], 5.00 to 5.30; at PIK3CB (Human) it was 5.00 to 5.30; against PIK3CG (human), 6.30 to 7.00.
For `C[C@H](NC(=O)c1c(N)nn2cccnc12)c1cc2cccc(C#Cc3ccc(=O)n(C)c3)c2c(=O)n1-c1ccccc1`, the pIC50 was 6.30 to 7.00 at PIK3CD (Human) [1], 5.30 to 6.00 against PIK3CD (Human) [2], 5.00 to 5.30 at PIK3CB (Human) and 7.00 to 9.00 against PIK3CG (human).
For `C[C@H](NC(=O)c1c(N)nn2cccnc12)c1cc2cccc(C#CCN(C)C)c2c(=O)n1-c1ccccc1` the same measures were 6.30 to 7.00, 5.00 to 5.30, 5.00 to 5.30 and 6.00 to 6.30.
For the molecule `C[C@H](NC(=O)c1c(N)nn2cccnc12)c1cc2cccc(N)c2c(=O)n1-c1ccccc1`, the pIC50 against PIK3CD (Human) [2] was 5.30 to 6.00; at PIK3CB (Human), 5.30 to 6.00; at PIK3CG (human) it was 7.00 to 9.00.
With `C[C@H](NC(=O)c1c(N)nn2cccnc12)c1cc2cccc(C#Cc3cnn(C)c3)c2c(=O)n1C1CCCCC1`, the negative logarithm of the IC50 (pIC50) against PIK3CD (Human) [2] is 5.00 to 5.30; against PIK3CB (Human), 5.00 to 5.30; against PIK3CG (human) it was 5.30 to 6.00.
For `Cc1cccc(-n2c([C@H](C)NC(=O)c3c(N)nn4cccnc34)cc3cccc(C#Cc4cnn(C)c4)c3c2=O)c1`, the values for the pIC50 against PIK3CD (Human) [2], on PIK3CB (Human) and on PIK3CG (human) were 5.00 to 5.30, 5.00 to 5.30 and 6.30 to 7.00, respectively.
With `Cc1ccn2nc(N)c(C(=O)N[C@@H](C)c3cc4cccc(C#Cc5cnn(C)c5)c4c(=O)n3-c3ccccc3)c2n1`, the pIC50 is 5.00 to 5.30 on PIK3CD (Human) [2], 5.30 to 6.00 at PIK3CB (Human) and 7.00 to 9.00 on PIK3CG (human).
With `C[C@H](NC(=O)c1c(N)nn2cccnc12)c1cc2cccc(C#Cc3cnn(C)c3)c2c(=O)n1C1CC1`, the pIC50 against PIK3CD (Human) [1] is 6.30 to 7.00; against PIK3CD (Human) [2], 5.00 to 5.30; at PIK3CB (Human), 5.30 to 6.00.
Take `C[C@H](NC(=O)c1c(N)nn2cccnc12)c1cc2cccc(C#CC3CCN(C)CC3)c2c(=O)n1-c1ccccc1`: the figures for the pIC50 at PIK3CD (Human) [2], against PIK3CB (Human) and at PIK3CG (human) were 5.00 to 5.30, 5.00 to 5.30 and 6.00 to 6.30, respectively.
In the case of `C[C@H](NC(=O)c1c(N)nn2cccnc12)c1cc2cccc(C#Cc3cnn(C)c3)c2c(=O)n1-c1ccc(F)c(F)c1`, the values for the pIC50 at PIK3CD (Human) [2], on PIK3CB (Human) and against PIK3CG (human) were 5.00 to 5.30, 5.00 to 5.30 and 6.30 to 7.00, respectively.
With `C[C@H](NC(=O)c1c(N)nn2cccnc12)c1cc2cccc(C#Cc3cnn(C)c3)c2c(=O)n1CCS(=O)(=O)N(C)C`, the pIC50 against PIK3CD (Human) [2] was 5.00 to 5.30; on PIK3CB (Human), 5.30 to 6.00; at PIK3CG (human), 7.00 to 9.00.
Turning to `C[C@H](NC(=O)c1c(N)nn2cccnc12)c1cc2cccc(C#Cc3cnn(C)c3)c2c(=O)n1-c1cccc(F)c1`, the pIC50 is 5.00 to 5.30 against PIK3CD (Human) [2], 5.00 to 5.30 against PIK3CB (Human) and 7.00 to 9.00 against PIK3CG (human).
Turning to `C#Cc1cccc2nc([C@H](C)NC(=O)c3nccnc3N)n(-c3ccccc3)c(=O)c12`, the pIC50 against PIK3CD (Human) [2] was 6.30 to 9.00; against PIK3CB (Human), 6.30 to 9.00; against PIK3CG (human), 7.00 to 9.00.
Turning to `Cc1ccnc2c(C(=O)N[C@@H](C)c3cc4cccc(C#Cc5cnn(C)c5)c4c(=O)n3-c3ccccc3)cnn12`, the pIC50 is 5.00 to 5.30 against PIK3CD (Human) [2], 5.00 to 5.30 against PIK3CB (Human) and 6.30 to 7.00 against PIK3CG (human).
Consider `CC(C)n1c([C@H](C)NC(=O)c2c(N)nn3cccnc23)cc2cccc(C#Cc3cnn(C)c3)c2c1=O`, for which the pIC50 at PIK3CD (Human) [2] is 5.00 to 5.30; on PIK3CB (Human) it was 5.00 to 5.30; at PIK3CG (human), 6.00 to 6.30.
For the molecule `C[C@H](NC(=O)c1c(N)nn2cccnc12)c1cc2cccc(C#Cc3cnn(C)c3)c2c(=O)n1C`, the pIC50 was 5.00 to 5.30 against PIK3CD (Human) [2], 6.00 to 6.30 at PIK3CB (Human) and 6.30 to 7.00 at PIK3CG (human).
In the case of `C[C@H](NC(=O)c1c(N)nn2cccnc12)c1cc2cccc(C=Cc3ccccc3)c2c(=O)n1-c1ccccc1`, the negative logarithm of the IC50 (pIC50) was 5.00 to 5.30 against PIK3CD (Human) [2], 5.00 to 5.30 against PIK3CB (Human) and < 5.30 on PIK3CG (human).
`CC[C@H](NC(=O)c1c(N)nn2cccnc12)c1cc2cccc(C#Cc3cnn(C)c3)c2c(=O)n1-c1ccccc1`: the pIC50 was 5.00 to 5.30 against PIK3CD (Human) [2], 5.00 to 5.30 against PIK3CB (Human) and 7.00 to 9.00 on PIK3CG (human).
For `Cc1nnc(C#Cc2cccc3cc([C@H](C)NC(=O)c4c(N)nn5cccnc45)n(-c4ccccc4)c(=O)c23)s1`, the pIC50 against PIK3CD (Human) [2] was 5.30 to 6.00; against PIK3CB (Human), 5.30 to 6.00; against PIK3CG (human), 6.30 to 7.00.
Take `CNS(=O)(=O)CCn1c([C@H](C)NC(=O)c2c(N)nn3cccnc23)cc2cccc(C#Cc3cnn(C)c3)c2c1=O`: the negative logarithm of the IC50 (pIC50) against PIK3CD (Human) [2] was 5.00 to 5.30; at PIK3CB (Human), 5.30 to 6.00; at PIK3CG (human), 7.00 to 9.00.
The matching figures for `Cc1ccccc1-n1c([C@H](C)NC(=O)c2c(N)nn3cccnc23)cc2cccc(C#Cc3cnn(C)c3)c2c1=O`: 5.00 to 5.30, 5.00 to 5.30 and 7.00 to 9.00.
Turning to `C[C@H](NC(=O)c1c(N)nn2cccnc12)c1nc2cccc(C#Cc3cnn(C)c3)c2c(=O)n1-c1ccccc1`, the figures for the pIC50 against PIK3CD (Human) [1], at PIK3CD (Human) [2] and on PIK3CB (Human) were 6.30 to 7.00, 5.00 to 5.30 and 5.00 to 5.30, respectively.
